Results taken from patent US20090263838A1, “Method for determining a lung cancer treatment and method for determining the effectiveness of an agent for treatment of lung cancer” (Sanko Junyaku Co., Ltd., priority 2008, published 2009).
Where two headings read alike, the source gives them in different places.

Tested on: non-small cell lung cancer (NSCLC) patients
Method: Potential factors linked to survival such as age, gender, performance status, smoking history, tumor histology, number of prior chemotherapy regimen, and presence of distant metastasis were also reviewed for each patient. Pretreatment interstitial lung disease was diagnosed using a high resolution computed tomography scan of the chest by diagnostic radiologists blinded to any clinical information.
The tumor response was assessed as complete response (CR), partial response (PR), no change (NC), or progressive disease (PD) according to the World Health Organization Criteria.
The cut-off level of KL-6 was set at 500 U/ml based on the levels of healthy individuals as reported previously.
Genomic DNAs were extracted from frozen or paraffin embedded specimens and the mutational status of the EGFR tyrosine kinase domain (through exons 18 to 21) was examined by the direct sequence method as described previously. In brief, the PCR amplification for extracted DNAs was done using HotStarTaq DNA polymerase (Qiagen Inc., Valencia, Calif.) with the specific primers and PCR conditions. PCR products were incubated using ExoSAP-IT (Amersham Biosciences Corp., Piscataway, N.J.) and then it was sequenced directly using the Applied Biosystems PRISM dye terminator cycle sequencing method (Perkin-Elmer Corp., Foster City, Calif.) with ABI PRISM 3100 Genetic Analyzer (Applied Biosystems, Foster City, Calif.).
The associations between various clinical factors were evaluated using either the χ^2 test or the Fisher's exact test. […] The progression-free and overall survival times were both calculated using the Kaplan-Meier method; different groups were compared using the log-rank test. Associations of various factors with survival were evaluated using the backward stepwise Cox regression analysis. Differences were considered to be statistically significant if the p value was less than 0.05.

[1] = patients with elevated KL-6 (≧500 U/ml)
[2] = patients with normal range of KL-6

## COc1cc2ncnc(Nc3ccc(F)c(Cl)c3)c2cc1OCCCN1CCOCC1 [gefitinib]
All 41 NSCLC patients
  complete response (CR), number of patients: One
  early discontinuance of gefitinib (less than 2 weeks) because of rapid tumor progression: 3 (7%) patients
  no change (NC), number of patients: 20 patients
  partial response (PR), number of patients: ten
  progressive disease (PD), number of patients: 10 patients
All 41 NSCLC patients, gefitinib 250 mg daily oral, WHO criteria
  overall objective response rate: 26.8%
All 41 patients
  1-year survival rate: 61.0%
  2-year survival rate: 29.8%
  median overall survival time: 13.9 months
  median progression-free survival time: 4.7 months
All 41 patients, during the study period
  severe interstitial lung disease or treatment-related death due to gefitinib treatment: neither severe interstitial lung disease nor treatment-related death occurred
Patients with an EGFR mutation
  overall survival: 17.8 months
[1]
  median overall survival time: 8.5 months
  median progression-free survival time: 2.1 months
Patients with elevated serum KL-6 levels (≧500 U/ml)
  response to gefitinib: 23%
[2]
  median overall survival time: 21.1 months
  median progression-free survival time: 5.8 months
Patients with wild-type EGFR
  overall survival: 8.5 months
Patients with wild-type EGFR and elevated serum KL-6
  median survival time: 6.5 months
Patients with wild-type EGFR and normal range of KL-6
  median survival time: 13.3 months
Patients without elevated serum KL-6 levels
  response to gefitinib: 32%
